This passage reports viability and inhibition results from ChEMBL document CHEMBL6078668, “Synthesis and biological evaluation of lappaconitine analogues as potential anti-neuroinflammatory agents by side chain modification and scaffold hopping strategy” (Bioorg Med Chem, 2025).

Data set [1] can be described thus: Cytotoxicity against C57BL/6 mouse BV-2 cells assessed as survival rate at 30 uM incubated for 24 hrs by MTT assay relative to control. It counts as toxicity, cell-based. The note with it: read-out: Survival.
For data set [2], the system named is BV-2. The experiment in a line: Anti-neuroinflammatory activity against LPS-stimulated C57BL/6 mouse BV-2 cells assessed as inhibition of NO release at 30 uM preincubated with compound for 4 hrs followed by LPS addition and measured after 24 hrs by Griess reagent based assay relative to control. The note with it: C57BL/6, BV-2, time 28 hrs. Type of data set: functional.

For `CCN1C[C@]2(OC(=O)c3ccccc3NC(=O)c3ccc(I)cc3)CC[C@H](OC)[C@]34C1[C@@H](C[C@H]23)[C@@]1(O)C[C@H](OC)[C@H]2C[C@@H]4[C@]1(O)[C@H]2OC`, the viability at 24 h, 30 µM in data set [1] came to 100%. Also, in data set [2], the inhibition (commonly the share of the control response that was lost under treatment) at 30 µM amounted to 36.1%.

Consider `CCN1C[C@]2(OC(=O)c3ccccc3NC(=O)S(=O)(=O)c3ccc(OC)cc3OC)CC[C@H](OC)[C@]34C1[C@@H](C[C@H]23)[C@@]1(O)C[C@H](OC)[C@H]2C[C@@H]4[C@]1(O)[C@H]2OC`, for which the viability at 24 h, 30 µM in data set [1] is 99.7%. The inhibition at 30 µM in data set [2] was found to be 20.9%.

Regarding `CCN1C[C@]2(OC(=O)c3ccccc3NC(=O)S(=O)(=O)c3cc(Cl)ccc3F)CC[C@H](OC)[C@]34C1[C@@H](C[C@H]23)[C@@]1(O)C[C@H](OC)[C@H]2C[C@@H]4[C@]1(O)[C@H]2OC`, the viability at 24 h, 30 µM in data set [1] came out at 95.1%. Further, the inhibition at 30 µM in data set [2] turned out to be 36.1%.

Regarding `CCN1C[C@]2(OC(=O)c3ccccc3NC(=O)S(=O)(=O)c3ccc(C(=O)OC)cc3)CC[C@H](OC)[C@]34C1[C@@H](C[C@H]23)[C@@]1(O)C[C@H](OC)[C@H]2C[C@@H]4[C@]1(O)[C@H]2OC`, the viability at 24 h, 30 µM in data set [1] was 104%. In data set [2], the inhibition at 30 µM came to 15.7%.

As for `CCc1ccc(C(=O)Nc2ccccc2C(=O)O)cc1`, in data set [1], the viability at 24 h, 30 µM was found to be 101%. In addition, the inhibition at 30 µM in data set [2] is 11.9%.

For `CCN1C[C@]2(OC(=O)c3ccccc3NC(=O)S(=O)(=O)c3ccc(F)cc3F)CC[C@H](OC)[C@]34C1[C@@H](C[C@H]23)[C@@]1(O)C[C@H](OC)[C@H]2C[C@@H]4[C@]1(O)[C@H]2OC`, the viability at 24 h, 30 µM in data set [1] was 103%. Moreover, the inhibition at 30 µM in data set [2] was 47.5%.

In the case of `CCN1C[C@]2(OC(=O)c3ccccc3NC(=O)S(=O)(=O)c3ccc(C)c(Cl)c3)CC[C@H](OC)[C@]34C1[C@@H](C[C@H]23)[C@@]1(O)C[C@H](OC)[C@H]2C[C@@H]4[C@]1(O)[C@H]2OC`, in data set [1], the viability at 24 h, 30 µM worked out at 94.8%. Besides, the inhibition at 30 µM in data set [2] worked out at 25.2%.

In the case of `CCCC(C)C(=O)Nc1ccccc1C(=O)O[C@@]12CC[C@H](OC)[C@]34C([C@@H](C[C@H]13)[C@@]1(O)C[C@H](OC)[C@H]3C[C@@H]4[C@]1(O)[C@H]3OC)N(CC)C2` (stereo not given in full), the viability at 24 h, 30 µM in data set [1] is 108%. Also, the inhibition at 30 µM in data set [2] came out at 57.8%.

On to `CCN1C[C@]2(OC(=O)c3ccccc3NC(=O)S(=O)(=O)CCCCl)CC[C@H](OC)[C@]34C1[C@@H](C[C@H]23)[C@@]1(O)C[C@H](OC)[C@H]2C[C@@H]4[C@]1(O)[C@H]2OC`, for which the viability at 24 h, 30 µM in data set [1] was determined as 104%. In addition, the inhibition at 30 µM in data set [2] is 23.5%.

As to `CCCCOC(=O)c1ccccc1NS(=O)(=O)c1ccc(Br)s1`, the viability at 24 h, 30 µM in data set [1] was 104%. Besides, the inhibition at 30 µM in data set [2] is 34.6%.

For the molecule `CCN1C[C@]2(OC(=O)c3ccccc3NC(=O)S(=O)(=O)CC)CC[C@H](OC)[C@]34C1[C@@H](C[C@H]23)[C@@]1(O)C[C@H](OC)[C@H]2C[C@@H]4[C@]1(O)[C@H]2OC`, the viability at 24 h, 30 µM in data set [1] was 106%. For the same molecule, in data set [2], the inhibition at 30 µM was 12.5%.

For the molecule `CCCCC(CC)C(=O)Nc1ccccc1C(=O)O[C@@]12CC[C@H](OC)[C@]34C([C@@H](C[C@H]13)[C@@]1(O)C[C@H](OC)[C@H]3C[C@@H]4[C@]1(O)[C@H]3OC)N(CC)C2` (stereo not given in full), the viability at 24 h, 30 µM in data set [1] is 95.9%. Moreover, the inhibition at 30 µM in data set [2] came to 38.2%.

`C=C(C)C(=O)Nc1ccccc1C(=O)O[C@@]12CC[C@H](OC)[C@]34C([C@@H](C[C@H]13)[C@@]1(O)C[C@H](OC)[C@H]3C[C@@H]4[C@]1(O)[C@H]3OC)N(CC)C2`: the viability at 24 h, 30 µM in data set [1] worked out at 94.2%. For the same molecule, in data set [2], the inhibition at 30 µM amounted to 12.9%.

Take `CCN1C[C@]2(OC(=O)c3ccccc3NC(=O)CCc3ccccc3)CC[C@H](OC)[C@]34C1[C@@H](C[C@H]23)[C@@]1(O)C[C@H](OC)[C@H]2C[C@@H]4[C@]1(O)[C@H]2OC`: the viability at 24 h, 30 µM in data set [1] was found to be 108%. Further, in data set [2], the inhibition at 30 µM worked out at 16.6%.

For the molecule `CCN1C[C@]2(OC(=O)c3ccccc3NC(=O)S(=O)(=O)c3cccc([N+](=O)[O-])c3)CC[C@H](OC)[C@]34C1[C@@H](C[C@H]23)[C@@]1(O)C[C@H](OC)[C@H]2C[C@@H]4[C@]1(O)[C@H]2OC`, the viability at 24 h, 30 µM in data set [1] stood at 106%. Further, in data set [2], the inhibition at 30 µM stood at 11.7%.

`CCN1C[C@]2(OC(=O)c3ccccc3NC(=O)S(=O)(=O)c3cccs3)CC[C@H](OC)[C@]34C1[C@@H](C[C@H]23)[C@@]1(O)C[C@H](OC)[C@H]2C[C@@H]4[C@]1(O)[C@H]2OC`: in data set [1], the viability at 24 h, 30 µM is 105%. In addition, the inhibition at 30 µM in data set [2] worked out at 55.9%.

Turning to `CCN1C[C@]2(OC(=O)c3ccccc3NC(=O)c3cccc(F)c3)CC[C@H](OC)[C@]34C1[C@@H](C[C@H]23)[C@@]1(O)C[C@H](OC)[C@H]2C[C@@H]4[C@]1(O)[C@H]2OC`, the viability at 24 h, 30 µM in data set [1] was found to be 107%. Besides, the inhibition at 30 µM in data set [2] is 11%.

With `CCN1C[C@]2(OC(=O)c3ccccc3NC(=O)S(=O)(=O)c3cccc(OC)c3)CC[C@H](OC)[C@]34C1[C@@H](C[C@H]23)[C@@]1(O)C[C@H](OC)[C@H]2C[C@@H]4[C@]1(O)[C@H]2OC`, in data set [1], the viability at 24 h, 30 µM worked out at 102%. Further, in data set [2], the inhibition at 30 µM was determined as 23.5%.

For `CCN1C[C@]2(OC(=O)c3ccccc3NC(=O)S(=O)(=O)c3cc(Cl)ccc3OC)CC[C@H](OC)[C@]34C1[C@@H](C[C@H]23)[C@@]1(O)C[C@H](OC)[C@H]2C[C@@H]4[C@]1(O)[C@H]2OC`, the viability at 24 h, 30 µM in data set [1] was 94.9%. In addition, the inhibition at 30 µM in data set [2] was determined as 6%.

On to `O=c1c(O)c(-c2ccc(O)c(O)c2)oc2cc(O)cc(O)c12` [QUERCETIN], for which the viability at 24 h, 30 µM in data set [1] was 99.5%. Besides, the inhibition at 30 µM in data set [2] came to 76.7%.

As for `CCN1C[C@]2(OC(=O)c3ccccc3NC(=O)S(=O)(=O)c3csc4ccccc34)CC[C@H](OC)[C@]34C1[C@@H](C[C@H]23)[C@@]1(O)C[C@H](OC)[C@H]2C[C@@H]4[C@]1(O)[C@H]2OC`, the viability at 24 h, 30 µM in data set [1] was 100%. Also, the inhibition at 30 µM in data set [2] turned out to be 30.7%.

`COC(=O)c1ccccc1NS(=O)(=O)c1cccc(F)c1`: in data set [1], the viability at 24 h, 30 µM is 106%. The inhibition at 30 µM in data set [2] is 38.5%.

For the molecule `CCN1C[C@]2(OC(=O)c3ccccc3NC(=O)S(=O)(=O)c3ccc4ccccc4c3)CC[C@H](OC)[C@]34C1[C@@H](C[C@H]23)[C@@]1(O)C[C@H](OC)[C@H]2C[C@@H]4[C@]1(O)[C@H]2OC`, the viability at 24 h, 30 µM in data set [1] is 100%. In addition, in data set [2], the inhibition at 30 µM amounted to 53.1%.

As to `CCN1C[C@]2(OC(=O)c3ccccc3NC(=O)S(=O)(=O)c3cc(OC)ccc3OC)CC[C@H](OC)[C@]34C1[C@@H](C[C@H]23)[C@@]1(O)C[C@H](OC)[C@H]2C[C@@H]4[C@]1(O)[C@H]2OC`, the viability at 24 h, 30 µM in data set [1] worked out at 102%. Moreover, the inhibition at 30 µM in data set [2] was 26.3%.

On to `CCO/C=C/C(=O)Nc1ccccc1C(=O)O[C@@]12CC[C@H](OC)[C@]34C([C@@H](C[C@H]13)[C@@]1(O)C[C@H](OC)[C@H]3C[C@@H]4[C@]1(O)[C@H]3OC)N(CC)C2`, for which, in data set [1], the viability at 24 h, 30 µM worked out at 110%. In addition, in data set [2], the inhibition at 30 µM was determined as 28.7%.

Consider `CCN1C[C@]2(OC(=O)c3ccccc3NC(=O)S(=O)(=O)c3ccc(OC)cc3)CC[C@H](OC)[C@]34C1[C@@H](C[C@H]23)[C@@]1(O)C[C@H](OC)[C@H]2C[C@@H]4[C@]1(O)[C@H]2OC`, for which the viability at 24 h, 30 µM in data set [1] worked out at 92.4%. The inhibition at 30 µM in data set [2] was determined as 10.8%.

Turning to `CCN1C[C@]2(OC(=O)c3ccccc3NC(=O)S(=O)(=O)c3cncc(Br)c3)CC[C@H](OC)[C@]34C1[C@@H](C[C@H]23)[C@@]1(O)C[C@H](OC)[C@H]2C[C@@H]4[C@]1(O)[C@H]2OC`, the viability at 24 h, 30 µM in data set [1] is 91.5%. Also, in data set [2], the inhibition at 30 µM came out at 20.3%.

Consider `CCN1C[C@]2(OC(=O)c3ccccc3NC(=O)S(=O)(=O)c3cccc4ccccc34)CC[C@H](OC)[C@]34C1[C@@H](C[C@H]23)[C@@]1(O)C[C@H](OC)[C@H]2C[C@@H]4[C@]1(O)[C@H]2OC`, for which, in data set [1], the viability at 24 h, 30 µM was found to be 105%. Also, in data set [2], the inhibition at 30 µM is 30.5%.

With `CCc1ccc(C(=O)Nc2ccccc2C(=O)OC[C@@]23CC[C@H](OC)[C@]45C([C@@H](C[C@H]24)[C@@]2(O)C[C@H](OC)[C@H]4C[C@@H]5[C@]2(O)[C@H]4O)N(CC)C3)cc1`, the viability at 24 h, 30 µM in data set [1] was found to be 104%. Further, the inhibition at 30 µM in data set [2] turned out to be 15.5%.

As to `CCN1C[C@]2(OC(=O)c3ccccc3NC(=O)C3CCOC3)CC[C@H](OC)[C@]34C1[C@@H](C[C@H]23)[C@@]1(O)C[C@H](OC)[C@H]2C[C@@H]4[C@]1(O)[C@H]2OC` (stereo not given in full), in data set [1], the viability at 24 h, 30 µM amounted to 109%. Moreover, the inhibition at 30 µM in data set [2] amounted to 32.4%.

For `CCc1ccc(C(=O)Nc2ccccc2C(=O)OC)cc1`, in data set [1], the viability at 24 h, 30 µM is 103%. In data set [2], the inhibition at 30 µM turned out to be 37.1%.

On to `CCN1C[C@]2(OC(=O)c3ccccc3NC(=O)S(=O)(=O)c3cccc(C#N)c3)CC[C@H](OC)[C@]34C1[C@@H](C[C@H]23)[C@@]1(O)C[C@H](OC)[C@H]2C[C@@H]4[C@]1(O)[C@H]2OC`, for which the viability at 24 h, 30 µM in data set [1] turned out to be 108%. For the same molecule, in data set [2], the inhibition at 30 µM turned out to be 7.4%.

`CCN1C[C@]2(OC(=O)c3ccccc3NC(=O)S(=O)(=O)c3ccccc3Br)CC[C@H](OC)[C@]34C1[C@@H](C[C@H]23)[C@@]1(O)C[C@H](OC)[C@H]2C[C@@H]4[C@]1(O)[C@H]2OC`: the viability at 24 h, 30 µM in data set [1] came out at 92.6%. The inhibition at 30 µM in data set [2] came to 7.3%.

As for `CCN1C[C@]2(OC(=O)c3ccccc3NC(=O)S(=O)(=O)c3ccc(C(C)=O)cc3)CC[C@H](OC)[C@]34C1[C@@H](C[C@H]23)[C@@]1(O)C[C@H](OC)[C@H]2C[C@@H]4[C@]1(O)[C@H]2OC`, in data set [1], the viability at 24 h, 30 µM worked out at 92.6%. Further, in data set [2], the inhibition at 30 µM amounted to 18%.

In the case of `COC(=O)c1ccccc1NC(=O)c1ccc(Cl)s1`, in data set [1], the viability at 24 h, 30 µM came out at 93.5%. Moreover, the inhibition at 30 µM in data set [2] stood at 48.6%.
